The values below come from patent US20220202739A1, “ENDOCANNABINOID MIMETIC AND ANTI-INFLAMMATORY COMPOUND CONTAINING COMPOSITIONS, METHODS OF PREPARATION AND USES THEREOF” (priority 2019, published 2022).

For one assay, the system named is ITGB1. Nature of the assay: Gene expression custom microarray, pooled keratinocyte line (Example 3): ITGB1. The class given is cell-based, human. To be noted: pooled keratinocytes, 20 ppm, 24 hr. The procedure: (§1) Cell cultures: Received and began culture of pooled keratinocyte line from Promocell (C-12006; Lot #448Z026). Cells were seeded into a 75 cm2 flask and 2 6 well dishes for expansion and exposure per manufacturer's protocol using Keratinocyte Growth Medium (C2011B), Keratinocyte Supplement Mix (C39016) and CaCl (C34005). 2 ml of prepared solution were added to each of the 6 wells and 7 ml was added to the 75 cm2 flask.
(§2) Experimental phase: When the appropriate quantity of cells were grown, they were detached as described above, but at the final step were seeded into each well of one or more 6 well dishes. Each well received 2 ml of the cells suspended in suspension so they were seeded equally. The dishes were returned to the incubator until 85-95% confluency is reached.
(§3) It was at this stage that all wells were rinsed in PBS after aspirating the growth media. The compound(s) to be tested were previously mixed into a suitable solvent (e.g., DMSO or ethanol) that can be diluted to the desired concentration of test compound (10 μl) in the culture wells without exceeding maximum solvent concentrations and adversely effecting cell viability, and mixed with Basal Keratinocyte Media. NOTE: Standard maximum levels of solvent are 0.1% for DMSO and 0.5% for ETOH. The concentration for each tested compound/natural extract is generally listed in the left-hand column of Table 4. For certain compositions (e.g., compositions 15 and 16), other concentrations were used and are noted in the body of Table 4.
(§4) Every 2 wells on the 6 well plate served as a biological replicate for the purposes of RNA isolation and genetic expression evaluations making each 6 well dish an n=3 for the test compound contained in the media. […]
(§5) At the end of the 24 hr time period, the plates were removed from the incubator, the test media aspirated, and the cells rinsed with PBS. […] Allow 1 minute for saturation of the membrane and then centrifuge for 2 minutes to complete the RNA elution. • Quantify the quantity of RNA and store at −20 C° until use (no more than 1 month) […]

The test system of the next assay is KLF4. Nature of the assay: Gene expression custom microarray, pooled keratinocyte line (Example 3): KLF4. The format is cell-based, human. As to conditions: pooled keratinocytes, 20 ppm, 24 hr. The procedure:
as §1, §2, §3, §4, §5

For the compound `CCCCCCCCCCCCCCCC(=O)NCCO` [N-palmitoylethanolamide], in the assay with ITGB1, the “↑ITGB1 gene expression, fold increase or decrease vs untreated cells” value is listed as −4 fold. Besides, in the assay with KLF4, the “↑KLF4 gene expression, fold increase or decrease vs untreated cells” value amounted to 1.7 fold.

In the case of `CC(C)[C@]12O[C@H]1[C@@H]1O[C@]13[C@]1(O[C@H]1C[C@H]1C4=C(CC[C@@]13C)C(=O)OC4)[C@@H]2O` [Triptolide], the “↑ITGB1 gene expression, fold increase or decrease vs untreated cells” value in the assay on ITGB1 was −14.7 fold. In addition, the “↑KLF4 gene expression, fold increase or decrease vs untreated cells” value in the assay with KLF4 is 1.5 fold.

With `C=C(C)[C@@H]1CCC(C)=C[C@H]1c1c(O)cc(CCCCC)cc1O` [CBD, cannabidiol, reference compound], in the assay with ITGB1, the “↑ITGB1 gene expression, fold increase or decrease vs untreated cells” value was 1.8 fold. Moreover, in the assay with KLF4, the “↑KLF4 gene expression, fold increase or decrease vs untreated cells” value stood at 3.5 fold.
